Reference: ChEMBL document CHEMBL1154035, “Synthesis, characterization, and anti-melanoma activity of tetra-O-substituted analogs of nordihydroguaiaretic acid” (Bioorg Med Chem Lett, 2009)

Tested on: Mus musculus
Assay: Toxicity in ip dosed mouse
Assay type: organism-based
Details: in vivo

COc1ccc(C[C@@H](C)[C@@H](C)Cc2ccc(OC)c(OC)c2)cc1OC [TERAMEPROCOL]
LD50: 1000 mg/kg

CC(Cc1ccc(O)c(O)c1)C(C)Cc1ccc(O)c(O)c1 (configuration not stated) [NORDIHYDROGUAIARETIC ACID]
LD50: 75 mg/kg
